Measurements taken from publication PMC11726150, “Pre‐ADMET studies of 5‐(3′,4′‐dihydroxyphenyl)‐γ‐valerolactone, the bioactive intestinal metabolite of proanthocyanidins” (Archiv Der Pharmazie, 2024).
Entries after “also recorded” stand apart in the source; their conditions may differ.

Target: T1, PXR (Homo sapiens, UniProt O75469)
T1 sequence (O75469 1-434): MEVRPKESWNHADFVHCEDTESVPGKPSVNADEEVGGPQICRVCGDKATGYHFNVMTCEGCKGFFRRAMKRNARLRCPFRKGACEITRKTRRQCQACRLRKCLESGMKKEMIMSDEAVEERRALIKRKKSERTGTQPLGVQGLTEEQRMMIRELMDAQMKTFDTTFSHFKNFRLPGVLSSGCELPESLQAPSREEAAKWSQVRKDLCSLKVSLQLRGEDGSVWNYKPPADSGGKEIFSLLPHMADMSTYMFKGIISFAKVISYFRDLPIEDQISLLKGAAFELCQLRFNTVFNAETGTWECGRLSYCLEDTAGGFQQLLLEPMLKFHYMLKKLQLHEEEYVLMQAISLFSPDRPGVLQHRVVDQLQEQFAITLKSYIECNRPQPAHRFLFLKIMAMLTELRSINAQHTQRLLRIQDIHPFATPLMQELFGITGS
Type: cell-based
Parameters: expressed in transfected cells; host or cells: LS174T cells, transient electroporation
Conditions: LS174T cells, all concentrations tested (1.5–50 μM), 24 h
Description: The PXR activation potential of VL was determined in transiently transfected HepG2 and LS174T cells as described earlier.^[ [50] ^] In brief, 24‐h‐old cells having 70%−80% confluency were trypsinized and transfected with pSG5‐hPXR (25 μg) and PCR‐5 (25 μg) plasmid DNA by electroporation at 180 V (1 pulse for 70 ms). Cells were incubated at room temperature for 8 min and floating dead cells were carefully removed. Cells were seeded in 96‐well plates at a density of 50,000 cells/well. […] Following 24 h of incubation, the culture medium was aspirated and 40 μL of luciferase reagent (Promega Corporation) was added to each well. Luminescence was measured using a Spectramax M5 plate reader (Molecular Devices) and the fold increase in luciferase activity among sample‐treated cells was calculated in comparison with the vehicle‐treated (DMSO) cells.

O=C1CCC(Cc2ccc(O)c(O)c2)O1 (stereo not shown) [VL, 5‐(3′,4′‐dihydroxyphenyl)‐γ‐valerolactone]
PXR transcriptional activity, fold increase vs vehicle: does not increase the PXR activity; also recorded: < twofold
